Data from PMC11012124, “Synthesis of Novel Triazine-Based Chalcones and 8,9-dihydro-7H-pyrimido[4,5-b][1,4]diazepines as Potential Leads in the Search of Anticancer, Antibacterial and Antifungal Agents” (International Journal of Molecular Sciences, 2024).
In brackets after ≈: the same amount, converted by molar mass.

Legend:
[1] = tested on: N. gonorrhoeae ATCC 49226; test: MIC on GC agar plates; type: cell-based, Neisseria gonorrhoeae; settings: Neisseria gonorrhoeae, ATCC49226, read-out: MIC
Method in brief: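 N. gonorrhoeae (1 × 10^4 CFU) was spotted onto IsoVitaleX-supplemented (1%) GC agar containing graded compound levels. The lowest inhibitory concentration was recorded as the MIC, with oxidase testing used to verify growth, and each assay was done in duplicate on at least two separate occasions.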

HL-60(TB) = test: cells; settings: Homo sapiens, HL-60, 48 h
SK-OV-3 = test: cells; settings: Homo sapiens, SK-OV-3, 48 h
SK-MEL-28 = test: cells; settings: Homo sapiens, SK-MEL-28, 48 h
TK-10 = test: cells; settings: Homo sapiens, TK-10, 48 h
SN12C = test: cells; settings: Homo sapiens, 48 h
SR = test: cells; settings: Homo sapiens, 48 h
OVCAR-4 = test: cells; settings: Homo sapiens, OVCAR-4, 48 h
SK-MEL-2 = test: cells; settings: Homo sapiens, SK-MEL-2, 48 h
T-47D = test: cells; settings: Homo sapiens, T47D, 48 h
IGROV1 = test: cells; settings: Homo sapiens, IGROV-1, 48 h, read-out: LC50
DU-145 = test: cells; settings: Homo sapiens, DU-145, 48 h
MCF7 = test: cells; settings: Homo sapiens, MCF7, 48 h
OVCAR-5 = test: cells; settings: Homo sapiens, OVCAR-5, 48 h
CCRF-CEM = test: cells; settings: Homo sapiens, 48 h, read-out: LC50
KM12 = test: cells; settings: Homo sapiens, KM12, 48 h
NCI-H460 = test: cells; settings: Homo sapiens, NCI-H460, 48 h
MDA-MB-435 = test: cells; settings: Homo sapiens, MDA-MB-435, 48 h
MALME-3M = test: cells; settings: Homo sapiens, 48 h
K-562 = test: cells; settings: Homo sapiens, K562, 48 h
[2] = tested on: M. tuberculosis ATCC 27294; test: Antitubercular broth microdilution MIC; type: cell-based; settings: Mycobacterium tuberculosis; M. tuberculosis ATCC 27294 (H37Rv); read-out: Minimum inhibitory concentration (MIC)
CAKI-1 = test: cells; settings: Homo sapiens, CAKI-1, 48 h
[3] = tested on: Trichophyton mentagrophytes (CCC 202-2000); test: Antifungal broth microdilution (CLSI); type: cell-based; settings: Tm: Trichophyton mentagrophytes
Method in brief: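 Broth microdilution followed CLSI M27-A3 for yeasts and the filamentous-fungi reference method, in 200 μL final volume with DMSO-matched growth controls. Plates were incubated in the dark and humid at 30 °C for a time suited to each fungus; testing was done in triplicate.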

SW-620 = test: cells; settings: Homo sapiens, SW-620, 48 h
OVCAR-8 = test: cells; settings: Homo sapiens, OVCAR-8, 48 h
NCI-H522 = test: cells; settings: Homo sapiens, NCI-H522, 48 h

SMILES: COc1cc(C2CC(c3ccc(Cl)cc3)=Nc3c(N)nc(N)nc3N2)ccc1Oc1nc(Nc2ccc(F)cc2)nc(N(C)C)n1 (centres unmarked) [29e]
- MIC [1]: ≥ 500 µg/mL
- GI50 (HL-60(TB)): 44.7 µM
- CC50 (HL-60(TB); read-out: LC50): > 100 µM
- GI50 (SK-OV-3): > 100 µM
- CC50 (SK-OV-3; read-out: LC50): > 100 µM
- GI50 (SK-MEL-28): > 100 µM
- CC50 (SK-MEL-28; read-out: LC50): > 100 µM
- GI50 (TK-10): > 100 µM
- CC50 (TK-10; read-out: LC50): > 100 µM
- GI50 (SN12C): > 100 µM
- CC50 (SN12C; read-out: LC50): > 100 µM
- GI50 (SR): 3.41 µM
- CC50 (SR; read-out: LC50): > 100 µM
- GI50 (OVCAR-4): 18.9 µM
- CC50 (OVCAR-4; read-out: LC50): > 100 µM
- GI50 (SK-MEL-2): > 100 µM
- CC50 (SK-MEL-2; read-out: LC50): > 100 µM
- GI50 (T-47D): > 100 µM
- CC50 (T-47D; read-out: LC50): > 100 µM
- CC50 (IGROV1): > 100 µM
- GI50 (DU-145): > 100 µM
- CC50 (DU-145; read-out: LC50): > 100 µM
- GI50 (MCF7): 9.9 µM
- CC50 (MCF7; read-out: LC50): > 100 µM
- GI50 (OVCAR-5): > 100 µM
- CC50 (OVCAR-5; read-out: LC50): > 100 µM
- CC50 (CCRF-CEM): > 100 µM
- GI50 (KM12): 40.1 µM
- CC50 (KM12; read-out: LC50): > 100 µM
- GI50 (NCI-H460): 42.3 µM
- CC50 (NCI-H460; read-out: LC50): > 100 µM
- GI50 (MDA-MB-435): > 100 µM
- CC50 (MDA-MB-435; read-out: LC50): > 100 µM
- GI50 (MALME-3M): > 100 µM
- CC50 (MALME-3M; read-out: LC50): > 100 µM
- GI50 (K-562; K-562, 48 h): 4.5 µM
- CC50 (K-562; read-out: LC50): > 100 µM
- MIC [2]: 1.2 µg/mL (≈ 1.87 µM)
- GI50 (CAKI-1): 3.38 µM
- CC50 (CAKI-1; read-out: LC50): > 100 µM
- MIC [3]: > 250 µg/mL
- GI50 (SW-620): > 100 µM
- CC50 (SW-620; read-out: LC50): > 100 µM
- GI50 (OVCAR-8): > 100 µM
- CC50 (OVCAR-8; read-out: LC50): > 100 µM
- GI50 (NCI-H522): > 100 µM
- CC50 (NCI-H522; read-out: LC50): > 100 µM
